Data taken from ChEMBL document CHEMBL1201862, “PubChem BioAssay data set” (2004).
One block for each compound: values may come before it. The source made the active and inactive calls.

Key:
Assay type in all cases: functional
[1] = SAR analysis of small molecule activators of Apaf-1 using a LZ-Caspase-9/Caspase-3 Fluorescent Selectivity assay - Set 2.; settings: read-out: EC50_Mean
[2] = molecular target: Apoptotic protease-activating factor 1 (Homo sapiens, UniProt O14727); assay: SAR analysis of small molecule Activators of Apaf-1 in a Fluorescent assay - set 2.; settings: read-out: EC50_Mean
[3] = molecular target: Sphingosine 1-phosphate receptor 2 (Homo sapiens, UniProt O95136); assay: Late-stage fluorescence-based dose-response cell-based counterscreen assay to identify agonists of the Sphingosine 1-Phosphate Receptor 3 (S1P3): Sphingosine 1-Phosphate Receptor 2 (S1P2) agonist assay.
[4] = molecular target: Sphingosine 1-phosphate receptor 4 (Homo sapiens, UniProt O95977); assay: Late-stage fluorescence-based dose-response cell-based counterscreen assay to identify agonists of the Sphingosine 1-Phosphate Receptor 3 (S1P3): Sphingosine 1-Phosphate Receptor 4 (S1P4) agonist assay.
[5] = molecular target: Interleukin-1 receptor-associated kinase 4 (Homo sapiens, UniProt Q9NWZ3)
[6] = molecular target: Casein kinase II subunit alpha (Homo sapiens, UniProt P68400)
Chain of Casein kinase II subunit alpha (P68400 whole entry): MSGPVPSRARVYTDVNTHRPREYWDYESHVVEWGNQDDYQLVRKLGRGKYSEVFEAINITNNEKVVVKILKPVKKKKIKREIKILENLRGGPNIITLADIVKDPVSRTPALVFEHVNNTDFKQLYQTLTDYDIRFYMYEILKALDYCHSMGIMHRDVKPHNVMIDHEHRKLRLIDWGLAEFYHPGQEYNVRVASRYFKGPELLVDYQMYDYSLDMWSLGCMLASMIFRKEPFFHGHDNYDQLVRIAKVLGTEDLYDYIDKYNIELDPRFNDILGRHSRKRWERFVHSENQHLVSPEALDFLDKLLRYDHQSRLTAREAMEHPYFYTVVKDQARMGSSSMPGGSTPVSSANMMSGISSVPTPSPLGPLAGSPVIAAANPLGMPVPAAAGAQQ

[7] = molecular target: Serine/threonine-protein kinase Nek4 (Homo sapiens, UniProt P51957)
[8] = molecular target: Glycogen synthase kinase-3 beta (Homo sapiens, UniProt P49841);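 further: value comes from a broad kinome profiling panel, with GSK3B as the panel member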
Chain of Glycogen synthase kinase-3 beta (P49841 whole entry): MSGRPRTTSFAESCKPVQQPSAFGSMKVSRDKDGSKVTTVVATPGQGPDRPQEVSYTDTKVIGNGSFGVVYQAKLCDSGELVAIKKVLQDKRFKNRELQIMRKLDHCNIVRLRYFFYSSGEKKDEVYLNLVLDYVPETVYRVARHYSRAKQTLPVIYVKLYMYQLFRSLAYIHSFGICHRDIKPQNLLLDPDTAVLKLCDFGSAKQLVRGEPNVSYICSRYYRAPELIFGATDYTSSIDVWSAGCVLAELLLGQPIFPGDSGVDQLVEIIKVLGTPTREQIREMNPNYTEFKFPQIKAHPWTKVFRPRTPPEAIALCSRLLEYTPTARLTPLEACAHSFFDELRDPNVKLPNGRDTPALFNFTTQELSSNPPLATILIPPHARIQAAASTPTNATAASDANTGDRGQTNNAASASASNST

[9] = molecular target: Dual specificity protein kinase CLK4 (Homo sapiens, UniProt Q9HAZ1)
Chain of Dual specificity protein kinase CLK4 (Q9HAZ1 whole entry): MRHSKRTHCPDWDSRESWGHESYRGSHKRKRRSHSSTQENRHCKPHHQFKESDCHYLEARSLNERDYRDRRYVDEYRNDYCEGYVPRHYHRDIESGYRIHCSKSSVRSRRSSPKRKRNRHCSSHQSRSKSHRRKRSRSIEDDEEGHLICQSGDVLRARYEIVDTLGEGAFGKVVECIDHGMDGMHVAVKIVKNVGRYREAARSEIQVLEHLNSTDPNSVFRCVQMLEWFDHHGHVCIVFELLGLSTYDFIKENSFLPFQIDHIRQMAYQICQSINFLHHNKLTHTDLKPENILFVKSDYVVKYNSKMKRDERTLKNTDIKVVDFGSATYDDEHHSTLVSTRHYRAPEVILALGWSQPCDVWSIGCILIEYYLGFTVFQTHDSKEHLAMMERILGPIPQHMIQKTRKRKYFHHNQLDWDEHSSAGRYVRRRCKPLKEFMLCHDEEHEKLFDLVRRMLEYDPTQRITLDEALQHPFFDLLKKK

[10] = molecular target: Dual specificity protein kinase CLK2 (Homo sapiens, UniProt P49760)
Chain of Dual specificity protein kinase CLK2 (P49760 whole entry): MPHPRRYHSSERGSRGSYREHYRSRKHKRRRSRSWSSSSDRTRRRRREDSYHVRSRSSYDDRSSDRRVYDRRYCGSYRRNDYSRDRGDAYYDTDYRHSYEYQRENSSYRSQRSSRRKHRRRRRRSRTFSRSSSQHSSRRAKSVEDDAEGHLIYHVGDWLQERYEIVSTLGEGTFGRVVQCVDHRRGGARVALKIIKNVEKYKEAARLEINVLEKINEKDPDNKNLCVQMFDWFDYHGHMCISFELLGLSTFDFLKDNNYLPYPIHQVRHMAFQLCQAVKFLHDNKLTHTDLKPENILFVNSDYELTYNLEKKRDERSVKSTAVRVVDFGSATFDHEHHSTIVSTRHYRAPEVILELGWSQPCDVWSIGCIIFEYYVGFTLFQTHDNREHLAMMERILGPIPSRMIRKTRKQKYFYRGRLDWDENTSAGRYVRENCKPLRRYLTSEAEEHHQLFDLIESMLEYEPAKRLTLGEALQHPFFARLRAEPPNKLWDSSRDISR

[11] = molecular target: Dual specificity tyrosine-phosphorylation-regulated kinase 1A (Homo sapiens, UniProt Q13627);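 further: measured against DYRK1A as one member of a broad kinome profiling panel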
[12] = molecular target: T1, High affinity choline transporter 1 (Homo sapiens, UniProt Q9GZV3); assay: CHT inhibitors, dose response, cell-based, 5-point CRC, membrane potential dye (AID 504840)
T1 sequence (Q9GZV3 whole entry): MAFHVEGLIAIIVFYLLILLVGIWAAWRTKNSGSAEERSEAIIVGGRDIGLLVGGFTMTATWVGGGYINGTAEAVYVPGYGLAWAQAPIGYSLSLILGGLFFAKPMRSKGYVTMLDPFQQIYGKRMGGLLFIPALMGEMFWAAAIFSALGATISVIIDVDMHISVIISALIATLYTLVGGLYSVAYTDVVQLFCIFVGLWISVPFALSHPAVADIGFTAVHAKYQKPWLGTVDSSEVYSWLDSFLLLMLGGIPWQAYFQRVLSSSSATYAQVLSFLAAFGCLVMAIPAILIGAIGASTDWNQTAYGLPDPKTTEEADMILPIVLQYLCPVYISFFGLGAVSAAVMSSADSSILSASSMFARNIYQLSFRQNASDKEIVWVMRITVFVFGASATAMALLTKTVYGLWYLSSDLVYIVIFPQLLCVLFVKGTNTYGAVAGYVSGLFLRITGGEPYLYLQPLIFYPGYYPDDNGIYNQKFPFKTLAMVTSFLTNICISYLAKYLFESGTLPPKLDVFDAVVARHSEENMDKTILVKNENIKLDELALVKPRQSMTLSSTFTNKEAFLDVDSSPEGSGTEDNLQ

[13] = molecular target: T1, High affinity choline transporter 1; assay: CHT inhibitors, dose response, cell-based, 10-point CRC, membrane potential dye (AID 588401);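 further: membrane potential dye fluorescence of choline-evoked depolarization via CHT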
[14] = molecular target: Ribosomal protein S6 kinase alpha-3 (Homo sapiens, UniProt P51812);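 further: measured within a kinome-wide profiling panel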
Chain of Ribosomal protein S6 kinase alpha-3 (P51812 whole entry): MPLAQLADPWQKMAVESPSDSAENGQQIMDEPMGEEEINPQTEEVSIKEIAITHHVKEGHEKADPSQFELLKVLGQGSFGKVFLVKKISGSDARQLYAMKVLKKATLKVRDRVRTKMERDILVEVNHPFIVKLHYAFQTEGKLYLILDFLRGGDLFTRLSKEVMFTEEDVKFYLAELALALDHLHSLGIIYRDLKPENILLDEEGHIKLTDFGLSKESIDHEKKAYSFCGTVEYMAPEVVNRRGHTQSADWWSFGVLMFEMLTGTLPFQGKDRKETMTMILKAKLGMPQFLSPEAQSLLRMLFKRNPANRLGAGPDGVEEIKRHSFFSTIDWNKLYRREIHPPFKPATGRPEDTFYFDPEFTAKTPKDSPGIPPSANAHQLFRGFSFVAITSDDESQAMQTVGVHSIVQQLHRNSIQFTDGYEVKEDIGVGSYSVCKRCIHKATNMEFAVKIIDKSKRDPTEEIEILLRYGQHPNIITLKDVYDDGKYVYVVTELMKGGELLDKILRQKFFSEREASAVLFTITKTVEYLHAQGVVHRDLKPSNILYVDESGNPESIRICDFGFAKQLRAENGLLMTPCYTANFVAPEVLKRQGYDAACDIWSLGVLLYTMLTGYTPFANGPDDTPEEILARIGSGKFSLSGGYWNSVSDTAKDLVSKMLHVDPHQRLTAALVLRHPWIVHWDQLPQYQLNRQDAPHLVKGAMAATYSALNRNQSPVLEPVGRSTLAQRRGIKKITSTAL

[15] = molecular target: Serine/threonine-protein kinase D3 (Homo sapiens, UniProt O94806);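 further: determined within a kinase panel screen, with PRKCN as the panel member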
Chain of Serine/threonine-protein kinase D3 (O94806 whole entry): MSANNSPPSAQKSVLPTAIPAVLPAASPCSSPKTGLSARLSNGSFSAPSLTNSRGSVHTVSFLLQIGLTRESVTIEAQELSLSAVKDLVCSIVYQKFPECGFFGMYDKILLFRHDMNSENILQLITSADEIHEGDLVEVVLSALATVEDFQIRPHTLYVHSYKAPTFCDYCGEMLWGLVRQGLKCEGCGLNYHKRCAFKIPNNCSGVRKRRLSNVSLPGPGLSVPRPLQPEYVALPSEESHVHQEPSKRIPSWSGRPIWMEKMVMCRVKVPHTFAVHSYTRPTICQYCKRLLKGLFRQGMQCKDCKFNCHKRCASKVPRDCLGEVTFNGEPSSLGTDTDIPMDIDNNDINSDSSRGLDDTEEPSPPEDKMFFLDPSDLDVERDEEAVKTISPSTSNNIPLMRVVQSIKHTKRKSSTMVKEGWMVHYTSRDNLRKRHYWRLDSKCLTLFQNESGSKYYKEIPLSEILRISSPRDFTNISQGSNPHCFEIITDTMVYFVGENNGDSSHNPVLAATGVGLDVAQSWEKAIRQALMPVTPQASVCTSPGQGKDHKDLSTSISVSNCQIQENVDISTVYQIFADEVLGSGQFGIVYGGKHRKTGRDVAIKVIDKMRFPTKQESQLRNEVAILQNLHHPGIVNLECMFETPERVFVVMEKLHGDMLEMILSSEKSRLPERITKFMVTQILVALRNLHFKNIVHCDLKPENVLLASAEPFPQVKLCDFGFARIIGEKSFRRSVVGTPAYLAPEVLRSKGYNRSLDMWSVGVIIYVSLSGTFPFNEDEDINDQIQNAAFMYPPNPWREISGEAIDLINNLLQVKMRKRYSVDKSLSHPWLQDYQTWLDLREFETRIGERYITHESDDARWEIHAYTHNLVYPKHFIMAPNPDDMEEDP

[16] = molecular target: Macrophage colony-stimulating factor 1 receptor (Homo sapiens, UniProt P07333);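 further: value comes from the Navigating the Kinome screening panel, CSF1R member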
[17] = molecular target: Serine/threonine-protein kinase D2 (Homo sapiens, UniProt Q9BZL6);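 further: measured against PRKD2 as one member of a kinome-wide kinase profiling panel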
[18] = molecular target: Rho-associated protein kinase 1 (Homo sapiens, UniProt Q13464);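 further: measured within a broad kinome-wide panel profiling many kinases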
Chain of Rho-associated protein kinase 1 (Q13464 whole entry): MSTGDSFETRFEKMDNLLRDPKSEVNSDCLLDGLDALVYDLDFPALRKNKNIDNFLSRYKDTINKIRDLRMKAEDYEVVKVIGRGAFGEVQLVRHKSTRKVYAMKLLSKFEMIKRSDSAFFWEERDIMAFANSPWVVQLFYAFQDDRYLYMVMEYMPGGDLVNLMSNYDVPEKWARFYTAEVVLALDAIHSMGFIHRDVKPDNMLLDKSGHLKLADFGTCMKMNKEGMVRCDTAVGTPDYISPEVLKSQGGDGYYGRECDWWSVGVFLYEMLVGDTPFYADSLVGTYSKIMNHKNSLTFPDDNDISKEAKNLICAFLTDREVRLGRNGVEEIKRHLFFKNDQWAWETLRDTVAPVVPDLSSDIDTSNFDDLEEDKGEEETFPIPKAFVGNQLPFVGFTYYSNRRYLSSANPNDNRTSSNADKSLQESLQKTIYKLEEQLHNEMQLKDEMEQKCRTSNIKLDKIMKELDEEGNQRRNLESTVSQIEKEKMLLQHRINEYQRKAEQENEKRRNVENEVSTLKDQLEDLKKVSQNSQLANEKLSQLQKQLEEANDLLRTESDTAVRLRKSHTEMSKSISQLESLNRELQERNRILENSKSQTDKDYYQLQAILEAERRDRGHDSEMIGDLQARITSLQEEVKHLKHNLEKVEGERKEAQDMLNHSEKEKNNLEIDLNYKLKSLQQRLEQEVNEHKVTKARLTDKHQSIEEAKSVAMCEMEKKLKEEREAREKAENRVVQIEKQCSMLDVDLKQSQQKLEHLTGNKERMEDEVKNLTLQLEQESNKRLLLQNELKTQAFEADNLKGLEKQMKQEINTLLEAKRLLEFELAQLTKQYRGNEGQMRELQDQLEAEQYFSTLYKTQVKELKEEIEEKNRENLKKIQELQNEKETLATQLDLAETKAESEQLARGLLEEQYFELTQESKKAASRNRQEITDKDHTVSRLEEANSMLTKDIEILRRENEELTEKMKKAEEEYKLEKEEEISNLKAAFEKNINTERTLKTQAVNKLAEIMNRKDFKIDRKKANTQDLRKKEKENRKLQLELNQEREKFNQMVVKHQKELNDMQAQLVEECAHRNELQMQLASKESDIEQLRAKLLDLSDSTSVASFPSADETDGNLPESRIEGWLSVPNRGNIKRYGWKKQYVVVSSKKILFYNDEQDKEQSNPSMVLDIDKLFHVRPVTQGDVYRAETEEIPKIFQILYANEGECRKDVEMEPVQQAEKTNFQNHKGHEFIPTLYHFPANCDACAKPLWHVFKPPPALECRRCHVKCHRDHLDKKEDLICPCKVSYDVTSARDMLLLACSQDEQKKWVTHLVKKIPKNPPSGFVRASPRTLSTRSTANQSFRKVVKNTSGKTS

Compound: Cc1nn(CC(C)C(=O)O)c(C)c1C (centres undefined)
EC50 [1]: > 100 µM (inactive)
EC50 [2]: 63.6 µM (active)

Compound: O=C(c1coc(C2CC2)n1)N(C1CCCCC1)C1CCCCC1
EC50 [3]: > 50 µM (inactive)
EC50 [4]: > 50 µM (inactive)

Compound: C(=Cc1cncc(OCCc2c[nH]c3ccccc23)c1)c1ccncc1
Ki [5]: > 10 µM (inactive)
Ki [6]: 3.16 µM (active)
Ki [7]: 6.31 µM (active)
Ki [8]: 5.01 µM (active)
Ki [9]: 1 µM (active)

Compound: Nc1ncnc2c1ncn2C1OC(C(=O)NC2CC2)C(O)C1O (centres undefined)
IC50 [12]: 0.0241 nM (inconclusive)
IC50 [13]: 0.00447 µM (active)

Next, values leading:

Ki [10]: 1.58 µM (active)
Ki [11]: 2.51 µM (active)
Ki [9]: 2.51 µM (active)
Compound: CCc1cccc2c1n(CC)c(=N)n2CC(=O)c1ccc(Cl)cc1

Ki [14]: 3.16 µM (active)
Ki [15]: 1.58 µM (active)
Ki [16]: 1.26 µM (active)
Ki [17]: 1.58 µM (active)
Ki [18]: 3.98 µM (active)
Compound: CCNC(=O)c1[nH]nc(-c2cc(Cl)c(O)cc2O)c1-c1ccc(OC)cc1
